Here are results for one substance from patent publication US20130331331A1, “HEXAPEPTIDE WITH IMPROVED ACTIVITY IN THE REPAIR OF CELLULAR DNA OF DERMAL CELLS” (priority 2011, published 2013).

Non-standard residues stand in square brackets, D forms with d. Nle = CCCC[C@H](N)C(=O)O

Assay [1] has as its system melanocytes strain 1513c. As to the kind of experiment: cAMP levels, radioimmunoassay, strain 1513c. It is filed as cell-based, human. The following applies: 45 min, 0.1 mM IBMX. The protocol:
Dose-response experiments were carried out on three melanocytic strains, namely strains 1513c, 1505b and 105c melanocytes were treated with 1 pM-10 nM CUV9900 or NDP-MSH, or with 0.1-10 nM MSH for 45 minutes in the presence of 0.1 mM isobutyl methylxanthine (IBMX). The results obtained from strain 1513c are shown in FIG. 3, the results obtained from strain 1505b are shown in FIG. 5a and the results obtained from strain 105c are shown in FIG. 5b. The strains 1505b and 1513c were obtained from the same human adult while the strain 105c was obtained from another human adult. Cyclic AMP is the second messenger for the melanocortin-1 receptor, and assessment is usually performed indicating cellular activity reflective of melanogenesis. Cyclic AMP levels were determined using ^125I-labeled radioimmunoassay kit (Perkin Elmer, Waltham, Mass.), in human melanocytes that were treated with 0 (control), 0.1-10.0 nM α-MSH, or 0.001-10 nM NDP-MSH or 0.001-10.0 nM CUV 9900 for […]. in the presence of 0.1 mM IBMX, a phosphodiesterase inhibitor to prevent cAMP degradation. Triplicate wells were included in each group, and duplicate samples from each well were assayed for cAMP levels. Each data point is the mean percent of control of 6 determinations/group±S.E.
(In general: Changes in cAMP serve as a functional read-out for many G protein-coupled receptors.)

The test system of assay [2] is melanocyte strain 1505b. As to the kind of experiment: Cell proliferation as a measure of stability, strain 1505b. It is filed as cell-based, human.

Take “Ac-Nle-Glu His-D-Phe-Arg-Trp-NH2 (Ac-[Nle]EH[dF]RW-NH2; SMILES CCCC[C@H](NC(C)=O)C(=O)N[C@@H](CCC(=O)O)C(=O)N[C@@H](Cc1c[nH]cn1)C(=O)N[C@H](Cc1ccccc1)C(=O)N[C@@H](CCCNC(=N)N)C(=O)N[C@@H](Cc1c[nH]c2ccccc12)C(N)=O) [CUV9900, hexapeptide alpha-MSH analogue]”: in assay [1] (0.1 nM), the “cAMP, potency comparison” value was “more potent than NDP-MSH”. Besides, the “maximal level of cAMP, comparison” value in assay [1] (10 nM) is “higher maximal level of cAMP than MSH”. Also, in assay [2], the “more stable in comparison to MSH (cell proliferation)” value is 2.6% and the “more stable than NDP-MSH (cell proliferation)” value is on record as 10.16%. For the same substance, in assay [2] (1 nM), the “Cell proliferation (cell number), column 2” value is 120% of control and the “Cell proliferation (cell number), column 3” value is reported as 108% of control.
